According to PMC11423184 (Advanced Science, 2024):

Target: T1, SWELL1 channel (VRAC; SWELL1 = LRRC8A) (Mus musculus, UniProt Q80WG5)
T1 construct: endogenous VRAC in mouse primary astrocytes and hippocampal CA1 neurons, full length; neuronal current absent in NEX-cKO
T1 sequence (Q80WG5 1-810): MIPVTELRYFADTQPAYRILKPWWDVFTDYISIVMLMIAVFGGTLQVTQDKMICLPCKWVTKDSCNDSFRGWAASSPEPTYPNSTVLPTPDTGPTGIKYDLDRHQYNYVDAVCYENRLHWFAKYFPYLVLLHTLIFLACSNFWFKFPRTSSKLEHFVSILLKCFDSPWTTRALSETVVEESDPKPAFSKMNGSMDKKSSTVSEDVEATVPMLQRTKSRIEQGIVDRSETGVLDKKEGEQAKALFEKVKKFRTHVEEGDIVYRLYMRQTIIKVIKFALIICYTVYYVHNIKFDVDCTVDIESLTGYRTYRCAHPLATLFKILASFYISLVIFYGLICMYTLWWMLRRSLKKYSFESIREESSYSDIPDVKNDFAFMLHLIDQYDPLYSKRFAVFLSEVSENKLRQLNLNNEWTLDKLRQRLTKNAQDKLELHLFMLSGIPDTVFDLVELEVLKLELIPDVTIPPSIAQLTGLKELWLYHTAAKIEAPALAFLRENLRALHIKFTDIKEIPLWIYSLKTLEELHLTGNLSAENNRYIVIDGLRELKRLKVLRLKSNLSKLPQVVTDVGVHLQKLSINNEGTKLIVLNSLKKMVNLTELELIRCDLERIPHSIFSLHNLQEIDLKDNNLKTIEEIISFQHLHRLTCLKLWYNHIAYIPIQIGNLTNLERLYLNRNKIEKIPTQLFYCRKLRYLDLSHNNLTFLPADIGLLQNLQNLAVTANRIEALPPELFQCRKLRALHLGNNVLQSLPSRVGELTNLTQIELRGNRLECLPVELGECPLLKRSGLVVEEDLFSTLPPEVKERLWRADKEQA
Assay: whole-cell patch clamp, primary astrocytes
Assay type: cell-based
Conditions: hypotonicity-induced SWELL1 currents; concentration not given

## CC(=O)CC(c1ccccc1)c1c(O)c2ccccc2oc1=O (stereo not shown) [Warfarin]
  whole-cell patch clamp, primary astrocytes: Warfarin, another anticoagulant of the same family, failed to inhibit hypotonicity‐induced SWELL1 currents
